The structures appear in SMILES notation.

The values that follow come from patent US9745295B2, “Thiazole-substituted aminoheteroaryls as spleen tyrosine kinase inhibitors” (Merck Sharp & Dohme Corp., priority 2013, dated 2017).

The test addresses T1, recombinant human GST-SYK (Homo sapiens, UniProt P43405).
T1 construct: purchased Carna Biosciences 08-176
The test can be described thus: Homogeneous Time-Resolved Fluorescence (HTRF) assay for the recombinant human Syk enzyme. Type of test: biochemical. As to conditions: recombinant human GST-SYK 5 pM, ATP 25 μM, read-out: rhSYK IC50. Here is the method:
Homogeneous Time-Resolved Fluorescence (HTRF) Assay for the Recombinant Human Syk Enzyme
A recombinant GST-hSYK fusion protein was used to measure potency of compounds to inhibit human Syk activity. The recombinant human GST-SYK (Carna Biosciences #08-176) (5 pM final concentration) was incubated with various concentrations of the inhibitor diluted in DMSO (0.1% final concentration) for 10 minutes at room temperature in 15 mM Tris-HCl (pH 7.5), 0.01% tween 20, 2 mM DTT in 384 well plate format. To initiate the reaction the biotinylated substrate peptide (250 nM final concentration) that contains the phosphorylation site for Syk was added with magnesium (5 mM final concentration) and ATP (25 μM final concentration). Final volume of the reaction was 10 μL. Phosphorylation of the peptide was allowed to proceed for 45′ at room temperature. To quench the reaction and detect the phosphorylated product, 2 nM of a Europium-anti-phosphotyrosine antibody (Perkin Elmer #AD0161) and 70 nM SA-APC (Perkin-Elmer #CR130-100) were added together in 15 mM Tris pH 7.5, 40 mM EDTA, 0.01% tween 20. Final volume of the quenching solution was 10 μL.
The resulting HTRF signal was measured after 30 minutes on an EnVision (Perkin-Elmer) reader using a time-resolved fluorescence protocol. Table A below lists activities as IC50 values (nM) for representative compounds of the invention.
In general terms: Time-resolved FRET reads energy transfer from a long-lived donor to a nearby acceptor.
For orientation: IC50 means the concentration needed to halve the response being measured. With `Cc1cc(Nc2cccc(C(F)(F)F)n2)cc(-c2cnc(C3(O)CCC(C(=O)O)C(C)(C)C3)s2)c1` (single isomer, unassigned) [Example 2.5, (1S,4R or 1R,4S)-4-hydroxy-2,2-dimethyl-4-[5-(3-methyl-5-{[6-(trifluoromethyl)pyridin-2-yl]amino}phenyl)-1,3-thiazol-2-yl]cyclohexane-carboxylic acid], the IC50 was determined as 2820 nM.
With `COC(=O)C1CCC(O)(c2ncc(-c3cc(Nc4nccc(C(F)(F)F)n4)cc(C)n3)s2)CC1(C)C` (stereo not shown) [Example 1.8, methyl 4-hydroxy-2,2-dimethyl-4-[5-(6-methyl-4-{[4-(trifluoromethyl)pyrimidin-2-yl]amino}pyridin-2-yl)-1,3-thiazol-2-yl] cyclohexane-carboxylate], the IC50 came out at 8.37 nM.
The same measure for `CC1(C)CC(O)(c2ncc(-c3nccc(Nc4cc(C(F)(F)F)ccn4)n3)s2)CCC1C(=O)O` (single isomer, unassigned) [Example 1.14, 4-hydroxy-2,2-(1S,4R or 1R,4S)-dimethyl-4-[5-(4-{[4-(trifluoromethyl)pyridin-2-yl]amino}pyrimidin-2-yl)-1,3-thiazol-2-yl] cyclohexane-carboxylic acid]: 12.1 nM; for `Cc1cc(Nc2cc(C(F)(F)F)ncn2)nc(-c2cnc(C3(O)CCC(C(N)=O)C(C)C3)s2)c1` (single isomer, unassigned) [Example 1.17, rel-(1S,2R,4R or S)-4-hydroxy-2-methyl-4-[5-(4-methyl-6-{[6-(trifluoromethyl)pyrimidin-4-yl]amino}pyridin-2-yl)-1,3-thiazol-2-yl] cyclohexane-carboxamide]: 1.25 nM.
Take `Cc1cc(Nc2nccc(C(F)(F)F)n2)cc(-c2cnc(C3(O)CCC(C(=O)O)C(C)(C)C3)s2)n1` (single isomer, unassigned) [Example 1.9, (1S,4R or 1R,4S)-4-hydroxy-2,2-dimethyl-4-[5-(6-methyl-4-{[4-(trifluoromethyl)pyrimidin-2-yl]amino}pyridin-2-yl)-1,3-thiazol-2-yl] cyclohexane-carboxylic acid]: the IC50 was found to be 2.1 nM.
Turning to `Cc1cc(Nc2cc(C)ccn2)cc(-c2cnc(C(C)(O)[C@H]3CC[C@H](C(=O)O)CC3)s2)c1` (single isomer, unassigned) [Example 4.14, (trans)-4-((R or S)-1-hydroxy-1-(5-{3-methyl-5-[(4-methylpyridin-2-yl)amino]phenyl}-1,3-thiazol-2-yl)ethyl]cyclohexane carboxylic acid], the IC50 amounted to 14.5 nM.
As to `CC1(C)CC(O)(c2ncc(-c3nccc(Nc4cc(C(F)(F)F)ccn4)n3)s2)CCC1C(=O)O` (single isomer, unassigned) [Example 1.13, (1S,4R or 1R,4S)-4-hydroxy-2,2-dimethyl-4-[5-(4-{[4-(trifluoromethyl)pyridin-2-yl]amino}pyrimidin-2-yl)-1,3-thiazol-2-yl]cyclohexane-carboxylic acid], the IC50 came out at 0.564 nM.
Take `COc1cc(Nc2cc(C)cc(-c3cnc(C4(O)CCC(C(=O)O)C(C)(C)C4)s3)n2)ncn1` (single isomer, unassigned) [Example 3.4, (1S,4R or 1R,4S)-4-hydroxy-4-(5-{6-[(6-methoxypyrimidin-4-yl)amino]-4-methylpyridin-2-yl}-1,3-thiazol-2-yl)-2,2-dimethylcyclohexane-carboxylic acid]: the IC50 worked out at 2.32 nM.
On to `COC(=O)C1CCC(O)(c2ncc(-c3cc(Nc4nccc(OC(C)C)n4)cc(C)n3)s2)CC1(C)C` (stereo not shown) [Example 1.15, methyl 4-hydroxy-2,2-dimethyl-4-[5-(6-methyl-4-{[4-(1-methylethoxy)pyrimidin-2-yl]amino}pyridin-2-yl)-1,3-thiazol-2-yl] cyclohexane-carboxylate], for which the IC50 was found to be 10.4 nM.
For `COC(=O)c1ccc2c(c1)CCCC2(O)c1ncc(-c2cc(Nc3nccc(C(F)(F)F)n3)cc(C)n2)s1` (single isomer, unassigned) [Example 4.24, (R or S)-methyl 5-hydroxy-5-[5-(6-methyl-4-{[4-(trifluoromethyl)pyrimidin-2-yl]amino}pyridin-2-yl)-1,3-thiazol-2-yl]-5,6,7,8-tetrahydronaphthalene-2-carboxylate], the IC50 came to 17.6 nM.
The same measure for `Cc1cc(Nc2cncc(C(F)(F)F)n2)cc(-c2cnc(C3(O)CCC(C(=O)O)C(C)(C)C3)s2)c1` (single isomer, unassigned) [Example 2.4, (1S,4R or 1R,4S)-4-hydroxy-2,2-dimethyl-4-[5-(3-methyl-5-{[6-(trifluoromethyl)pyrazin-2-yl]amino}phenyl)-1,3-thiazol-2-yl]cyclohexane-carboxylic acid]: 4200 nM; for `Cc1cc(Nc2cnccn2)nc(-c2cnc(C3(O)CCCc4cc(C(=O)O)ccc43)s2)c1` (single isomer, unassigned) [Example 2.6, (R or S)-5-hydroxy-5-{5-[4-methyl-6-(pyrazin-2-ylamino)pyridin-2-yl]-1,3-thiazol-2-yl}-5,6,7,8-tetrahydronaphthalene-2-carboxylic acid]: 0.0289 nM.
Regarding `Cc1cc(Nc2cc(C(F)(F)F)ncn2)nc(-c2cnc(C3(O)CCCc4cc(C(=O)O)ccc43)s2)c1` (single isomer, unassigned) [Example 2.7, (R or S)-5-hydroxy-5-[5-(4-methyl-6-{[6-(trifluoromethyl)pyrimidin-4-yl]amino}pyridin-2-yl)-1,3-thiazol-2-yl]-5,6,7,8-tetrahydronaphthalene-2-carboxylic acid], the IC50 was found to be 0.516 nM.
As to `CC1(C)CC(O)(c2ncc(-c3cccc(Nc4cc(C(F)(F)F)ncn4)n3)s2)CCC1C(=O)O` (single isomer, unassigned) [Example 3.6, (1S,4R or 1R,4S)-4-hydroxy-2,2-dimethyl-4-[5-(6-{[6-(trifluoromethyl)pyrimidin-4-yl]amino}pyridin-2-yl)-1,3-thiazol-2-yl]cyclohexanecarboxylic acid], the IC50 was determined as 0.517 nM.
`COc1cc(Nc2nccc(C)n2)cc(-c2cnc(C(C)(O)[C@H]3CC[C@H](C(=O)O)CC3)s2)n1` (single isomer, unassigned) [Example 4.22, (trans)-4-((R or S)-1-hydroxy-1-(5-{6-methoxy-4-[(4-methylpyrimidin-2-yl)amino]pyridin-2-yl}-1,3-thiazol-2-yl)ethyl]cyclohexane carboxylic acid]: the IC50 came out at 7.15 nM.
For `Cc1cc(Nc2cc(C3CCCCC3)ncn2)nc(-c2cnc(C3(O)CCCc4cc(C(=O)O)ccc43)s2)c1` (single isomer, unassigned) [Example 2.10, (R or S)-5-(5-{6-[(6-cyclohexylpyrimidin-4-yl)amino]-4-methylpyridin-2-yl}-1,3-thiazol-2-yl)-5-hydroxy-5,6,7,8-tetrahydronaphthalene-2-carboxylic acid], the IC50 is 1.12 nM.
For the molecule `Cc1cc(Nc2nccc(C(F)(F)F)n2)cc(-c2cnc(C3(O)CCCc4cc(C(=O)O)ccc43)s2)n1` (single isomer, unassigned) [Example 4.25, (R or S)-5-hydroxy-5-[5-(6-methyl-4-{[4-(trifluoromethyl)pyrimidin-2-yl]amino}pyridin-2-yl)-1,3-thiazol-2-yl]-5,6,7,8-tetrahydronaphthalene-2-carboxylic acid], the IC50 turned out to be 0.397 nM.
The same measure for `Cc1cc(Nc2ncc(F)c(C)n2)cc(-c2cnc(C(C)(O)[C@H]3CC[C@H](C(=O)O)CC3)s2)n1` (single isomer, unassigned) [Example 4.20, (trans)-4-((R or S)-1-(5-{4-[(5-fluoro-4-methylpyrimidin-2-yl)amino]-6-methylpyridin-2-yl}-1,3-thiazol-2-yl)-1-hydroxyethyl]cyclo-hexanecarboxylic acid]: 4.4 nM.
With `Cc1cc(Nc2nccc(C(F)(F)F)n2)cc(-c2cnc(C3(O)CCC3)s2)n1` [Example 2.1, 1-(5-(6-Methyl-4-((4-(trifluoromethyl)pyrimidin-2-yl)amino)pyridin-2-yl)thiazol-2-yl)cyclobutanol], the IC50 was 26.4 nM.
In the case of `Cc1cc(Nc2nccc(C)n2)cc(-c2cnc(C(C)(O)[C@H]3CC[C@H](C(=O)O)CC3)s2)n1` (single isomer, unassigned) [Example 4.11, (trans)-4-((R or S)-1-hydroxy-1-(5-{6-methyl-4-[(4-methylpyrimidin-2-yl)amino]pyridin-2-yl}-1,3-thiazol-2-yl)ethyl]cyclohexane carboxylic acid], the IC50 turned out to be 1.31 nM.
In the case of `CCc1cc(Nc2cc(C)cc(-c3cnc(C4(O)CCCc5cc(C(=O)O)ccc54)s3)n2)ncn1` (single isomer, unassigned) [Example 2.11, (R or S)-5-(5-{6-[(6-ethylpyrimidin-4-yl)amino]-4-methylpyridin-2-yl}-1,3-thiazol-2-yl)-5-hydroxy-5,6,7,8-tetrahydronaphthalene-2-carboxylic acid], the IC50 amounted to 0.0649 nM.
Turning to `CC1(C)CC(O)(c2ncc(-c3cccc(Nc4cc(C(F)(F)F)ncn4)n3)s2)CCC1C(=O)O` (single isomer, unassigned) [Example 3.7, (1S,4R or 1R,4S)-4-hydroxy-2,2-dimethyl-4-[5-(6-{[6-(trifluoromethyl)pyrimidin-4-yl]amino}pyridin-2-yl)-1,3-thiazol-2-yl]cyclohexanecarboxylic acid], the IC50 is 4.54 nM.
